Results taken from publication PMC3022839 (BMC Medical Imaging, 2011).

Key:
[1] = 18FDG brain uptake (PET); assay type: in vivo, rat; conditions: 60 minutes after injection
Description: No post-reconstruction filtering was applied.

[2] = test system: P-glycoprotein (P-gp); assay: P-gp expression in brain capillaries (immunohistochemistry, C219); assay type: in vivo, rat; conditions: kainate vs saline treated rats, 7 days after treatment; cortex and hippocampus CA1
[3] = test system: Sprague-Dawley rats; assay: Kainate-induced status epilepticus; assay type: in vivo, rat
Method: Adult male Sprague-Dawley rats (n = 50, Harlan, Horst, The Netherlands) weighing 200-224 g at arrival were housed in groups of 5-6 per cage until treatment. They were kept at a constant temperature of 21°C and at a 12 h light/dark cycle, in which lights were switched on at 8:00 AM. Animals had unrestricted access to food (Teklad Global 16% Protein Rodent Diet, Harlan, Madison, WI, USA) and water. Animal procedures were performed in accordance with Dutch laws on animal experimentation. All experiments were approved by the Ethics Committee for Animal Experiments of Leiden University (approval number UDEC08178). After approximately one week of habituation and 7 days prior to PET investigation rats were treated with either kainic acid (5 mg/mL) or saline. Kainic acid was administered repeatedly as a 10 mg/kg (2 mL/kg) i.p. injection followed by 5 mg/kg (1 mL/kg) i.p. every 30-60 minutes until stage IV seizures according to Racine's scale occurred, or when a total amount of 30 mg/kg kainic acid was reached. Control rats were treated with 3 saline i.p. injections using the same volumes as for the kainate treated rats, 30 minutes apart. After treatment rats were housed individually.

[4] = test system: P-glycoprotein (P-gp) at the blood-brain barrier; assay: Population mixed effects modelling (NONMEM) of (R)-[11C]verapamil brain kinetics
Method: Rats from the different groups were randomly assigned to experimental days and scanned in pairs for 60 minutes using a double LSO/LYSO layer High Resolution Research Tomograph (HRRT, CTI/Siemens, Knoxville, TN, USA) [37]. […] The other half was treated only with vehicle (3 mL/kg). […] The purpose of the ^18FDG scan was to outline the brain to aid in defining regions of interest. The HRRT scanner acquires data in list mode, enabling post-scan definition of the frame sequence. The final frame sequence used for analysis was 6 × 10, 2 × 30, 3 × 60, 2 × 150, 2 × 300 and 4 × 600 seconds. Studies were reconstructed using an iterative 3 D ordered-subsets weighted least-squares (3D-OSWLS) method with 8 iterations and 16 subsets [39]. No post-reconstruction filtering was applied. […]
PET image data were analyzed using the freely available software package Amide 0.8.22 [44]. […] To correct for an intravascular contribution, radioactivity measured in whole blood was exponentially interpolated to obtain blood radioactivity values at each mid frame time point and then subtracted from the brain time-activity curves, assuming that cerebral blood volume was 3% of the total brain volume [45]. […]
(§1) The NONMEM model was constructed in two steps. […] One, two and three compartment models were evaluated. […] Again, one and two compartment models were evaluated, and treatment, rat group and animal weight were included as covariates. […]

[5] = Tariquidar plasma concentration (LC/MS); assay type: in vivo; conditions: Sprague-Dawley, rat, intravenous, 15 mg/kg, 2 hours after tariquidar 15 mg/kg i.v., mean ± s.d.
[6] = Population mixed effects modelling (NONMEM) of (R)-[11C]verapamil plasma kinetics; conditions: tariquidar 15 mg/kg i.v. co-administration vs vehicle
Description: Plasma time-activity curves were corrected for tracer metabolism before they were used as input for kinetic modelling. […] Two types of corrections were used: (1) complete metabolite correction and (2) correction only for polar metabolites. […] Mathematically, this is described by the following equations:
Nonlinear mixed effects modelling, using NONMEM VI (GloboMax LLC, Hanover, MD, USA), provide a tool for analyzing repeated measurements data in which the relationship between the explanatory and response variables can be modeled as a single function, allowing the parameters to differ between individuals. In addition, these techniques recognize that the variability associated with the response variable for a given individual may depend on the response value in a way that is similar for all individuals. This could be due, for example, to properties associated with measurement error.
Data from all rats was processed simultaneously. The subroutine ADVAN 9 and first-order conditional estimation with interaction were used throughout the modelling procedure. […]
as §1

Compound: O=C[C@H]([18F])[C@@H](O)[C@H](O)[C@H](O)CO [^18FDG]
- 18FDG brain uptake, SUV ([1]; kainate treated rats, mean ± s.d.): 2.0 ± 0.4
- 18FDG brain uptake, SUV ([1]; saline treated rats, mean ± s.d.): 1.6 ± 0.3
- 18FDG brain uptake, SUV ([1]; with or without tariquidar co-administration (both groups)): 1.8 ± 0.4

Compound: C=C(C)[C@H]1CN[C@H](C(=O)O)[C@H]1CC(=O)O [kainic acid]
- P-gp expression, P-gp labelled surface area [2]: trend towards higher P-gp expression
- P-gp expression, optical density [2]: no difference
- duration of seizures ([3]; after kainic acid i.p.): 1 to 2 h
- seizure stage reached (Racine's scale) ([3]; kainic acid i.p. 10 mg/kg then 5 mg/kg every 30-60 minutes, all rats, except one): stage IV-V seizures
- rats that died as a result of treatment ([3]; kainic acid i.p., up to 30 mg/kg): Four
- time to status epilepticus after the last injection ([3]; typically 3 injections, i.e. 20 mg/kg i.p.): ≤ 20 min
- Covariate kainate on Vbr1 of (R)-[11C]verapamil (fractional difference) ([4]; kainate vs saline treated rats, 7 days after treatment): 1.32 (0.416)
- increase of Vbr1 of (R)-[11C]verapamil in kainate treated compared to saline treated rats ([4]; population model, rat group as covariate, 7 days after kainate): 32%

Compound: COc1cc2c(cc1OC)CN(CCc1ccc(NC(=O)c3cc(OC)c(OC)cc3NC(=O)c3cnc4ccccc4c3)cc1)CC2 [tariquidar, Tariquidar]
- concentration at 2 h ([5]; kainate group): 1600 ± 300 ng/mL
- concentration at 2 h ([5]; saline group): 1800 ± 300 ng/mL
- Covariate tariquidar on Vp1 of (R)-[11C]verapamil (fractional difference) [6]: 1.20 (0.119)
